This is an account of results in patent publication US11312705B2, “Heteroaryl[4,3-C]pyrimidine-5-amine derivative, preparation method therefor, and medical uses thereof” (Jiangsu Hengrui Medicine Co., Ltd., priority 2017, dated 2022).

The target of assay [1] is adenosine A2a receptor (A2aR) (Homo sapiens (Human), UniProt P29274). The assay is described as follows: Inhibition of adenosine A2a receptor cAMP signaling pathway (HTRF cAMP, CHO-K1/A2aR cells). It counts as cell-based. The text has this: (§1) Test Example 1. Determination of the inhibition activity of the compounds of the present invention on the adenosine A2a receptor (A2aR) cAMP signaling pathway, the adenosine A2b receptor (A2bR) cAMP signaling pathway, the adenosine A1 receptor (A1R) cAMP signaling pathway and the adenosine A3 receptor (A3R) cAMP signaling pathway.
Sequence of adenosine A2a receptor (A2aR) (P29274 whole entry): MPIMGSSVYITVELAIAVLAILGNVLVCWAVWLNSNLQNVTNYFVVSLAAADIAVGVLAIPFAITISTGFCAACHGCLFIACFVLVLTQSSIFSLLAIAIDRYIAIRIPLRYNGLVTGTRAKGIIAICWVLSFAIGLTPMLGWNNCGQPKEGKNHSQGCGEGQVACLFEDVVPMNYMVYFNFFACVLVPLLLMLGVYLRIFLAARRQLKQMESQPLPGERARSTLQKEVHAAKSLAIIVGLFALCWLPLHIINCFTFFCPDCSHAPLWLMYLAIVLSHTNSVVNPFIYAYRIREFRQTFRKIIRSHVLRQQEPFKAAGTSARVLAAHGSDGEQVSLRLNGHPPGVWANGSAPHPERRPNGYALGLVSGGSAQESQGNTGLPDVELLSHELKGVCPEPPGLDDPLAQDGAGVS
(§2) The inhibition activity of the compounds of the present invention on the adenosine A2a receptor cAMP signaling pathway, the adenosine A2b receptor cAMP signaling pathway, the adenosine A1 receptor cAMP signaling pathway and the adenosine A3 receptor cAMP signaling pathway was determined by the following method. The experimental method is briefly described as follows:
2.1 Adenosine A2a Receptor
CHO-K1/A2aR cells were cultured in DMEM/F12 medium containing 10% fetal bovine serum and 800 μg/ml bleomycin. The cells were digested with the cell separation buffer during the experiment. The cells were resuspended in the balanced salt buffer containing 20 mM HEPES and 0.1% bovine serum albumin and counted, and the cell density was adjusted to 10^6 cells/ml. In the 384-well plate, each well was added with 5 μl of cell suspension, and 2.5 μl of test compound (4× concentration) formulated with the balanced salt buffer containing 20 mM HEPES, 0.1% bovine serum albumin, 54 μM rolipram and 2.7 U/ml adenosine deaminase, and the plate was incubated at room temperature for 30 minutes. Each well was then added with 2.5 μl of […] (4× concentration) formulated with the balanced salt buffer containing 20 mM HEPES, 0.1% bovine serum albumin, 54 μM rolipram and 2.7 U/ml adenosine deaminase, and the plate was incubated at room temperature for 30 minutes. The final concentrations of the compounds were: 10000, 2000, 400, 80, 16, 3.2, 0.64, 0.128, 0.0256, 0.00512, and 0.001024 nM. The final concentration of […] was 20 nM. Intracellular cAMP concentration was detected with the cAMP dynamic 2 kit. cAMP-d2 and Anti-cAMP-Eu-Cryptate were diluted respectively with the cAMP lysis buffer at a ratio of 1:4. Each well was added with 5 μl of diluted cAMP-d2, followed by addition of 5 μl of diluted Anti-cAMP-Eu-Cryptate, and the plate was incubated at room temperature in the dark for 1 hour. The HTRF signal values were read by the PHERAstar multi-function microplate reader.
In general terms: Time-resolved FRET reads energy transfer from a long-lived donor to a nearby acceptor.

Assay [2] deals with adenosine A2b receptor (A2bR) (Homo sapiens (Human), UniProt P29275). Put plainly: Inhibition of adenosine A2b receptor cAMP signaling pathway (HTRF cAMP, CHO-K1/A2bR cells). It counts as cell-based. The following applies: Table 3; for IC50: CHO-K1/A2bR cells, ethyl carbazole 1 μM, cAMP HTRF; for IC50 ratio (A2bR/A2aR): selectivity A2bR over A2aR.
Sequence of adenosine A2b receptor (A2bR) (P29275 whole entry): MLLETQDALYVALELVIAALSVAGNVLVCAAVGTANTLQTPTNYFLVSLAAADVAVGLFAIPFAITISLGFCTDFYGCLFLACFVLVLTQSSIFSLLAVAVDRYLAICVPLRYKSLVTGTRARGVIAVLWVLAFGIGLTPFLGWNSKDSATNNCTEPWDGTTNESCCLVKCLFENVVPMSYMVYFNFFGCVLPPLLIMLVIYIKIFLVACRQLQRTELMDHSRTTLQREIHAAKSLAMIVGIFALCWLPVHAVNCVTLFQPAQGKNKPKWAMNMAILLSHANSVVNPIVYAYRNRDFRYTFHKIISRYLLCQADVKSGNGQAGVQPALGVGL
From the text: as §1, §2
2.4 Adenosine A2b receptor (A2bR)
CHO-K1/A2bR cells were cultured in DMEM/F12 medium containing 10% fetal bovine serum and 1 mg/ml G418. The cells were digested with the cell separation buffer during the experiment. The cells were resuspended in the balanced salt buffer containing 20 mM HEPES and 0.1% bovine serum albumin and counted, and the cell density was adjusted to 10^6 cells/ml. In the 384-well plate, each well was added with 5 μl of cell suspension, and 2.5 μl of test compound (4× concentration) formulated with the balanced salt buffer containing 20 mM HEPES, 0.1% bovine serum albumin, 54 μM rolipram and 2.7 U/ml adenosine deaminase, and the plate was incubated at room temperature for 30 minutes. Each well was then added with 2.5 μl of […] (4× concentration) (Torcis, 1691/10) formulated with the balanced salt buffer containing 20 mM HEPES, 0.1% bovine serum albumin, 54 μM rolipram and 2.7 U/ml adenosine deaminase, and the plate was incubated at room temperature for 30 minutes. The final concentrations of the compounds were: 100000, 10000, 1000, 100, 10, 1, 0.1 and 0 nM. The final concentration of […] was 1 μM. Intracellular cAMP concentration was detected with the cAMP dynamic 2 kit. cAMP-d2 and Anti-cAMP-Eu-Cryptate were diluted respectively with the cAMP lysis buffer at a ratio of 1:4. Each well was added with 5 μl of diluted cAMP-d2, followed by addition of 5 μl of diluted Anti-cAMP-Eu-Cryptate, and the plate was incubated at room temperature in the dark for 1 hour. The HTRF signal values were read by the PHERAstar multi-function microplate reader.

Structures are written as SMILES.

For `COc1cc(-c2c(-c3ccccc3)nc(N)n3cnnc23)cc(C)n1` [Example 25, 8-(2-Methoxy-6-methylpyridin-4-yl)-7-phenyl-[1,2,4]triazolo[4,3-c]pyrimidin-5-amine], the midpoint of inhibition in assay [1] (Table 1, ethyl carbazole 20 nM), the IC50, lay at 0.32 nM. Turning to `Cc1cc(-c2c(-c3ccccc3)nc(N)n3ccnc23)cc(C)n1` [Example 31, 8-(2,6-Dimethylpyridin-4-yl)-7-phenylimidazo[1,2-c]pyrimidin-5-amine], in assay [1] (Table 1, ethyl carbazole 20 nM), the IC50 (usually the concentration that inhibits the measured activity by half) came out at 0.93 nM. Take `Cc1cc(-c2c(-c3ccccc3)nc(N)n3ccnc23)cc(Cl)n1` [Example 24, 8-(2-Chloro-6-methylpyridin-4-yl)-7-phenylimidazo[1,2-c]pyrimidin-5-amine]: the IC50 in assay [1] (Table 1, ethyl carbazole 20 nM) came to 0.27 nM. Regarding `Cc1cc(-c2c(-c3ccc(Cl)cc3)nc(N)n3cnnc23)cc(Cl)n1` [Example 36, 8-(2-Chloro-6-methylpyridin-4-yl)-7-(4-chlorophenyl)-[1,2,4]triazolo[4,3-c]pyrimidin-5-amine], the IC50 in assay [1] (Table 1, ethyl carbazole 20 nM) was 3.47 nM. Compared with the last compound, the IC50 is about 13-fold higher. Take `Cc1cc(-c2c(-c3ccc(Cl)cc3)nc(N)n3cnnc23)cc(C)n1` [Example 54, 7-(4-Chlorophenyl)-8-(2,6-dimethylpyridin-4-yl)-[1,2,4]triazolo[4,3-c]pyrimidin-5-amine]: the IC50 in assay [1] (Table 1, ethyl carbazole 20 nM) was 0.48 nM.

As for `Cc1cc(-c2c(-c3ccccc3)nc(N)n3cnnc23)cc(C(F)(F)F)n1` [Example 1, 8-(2-Methyl-6-(trifluoromethyl)pyridin-4-yl)-7-phenyl-[1,2,4]triazolo[4,3-c]pyrimidin-5-amine], the IC50 in assay [1] (Table 1, ethyl carbazole 20 nM) is 0.23 nM; in assay [1] (Table 3, ethyl carbazole 20 nM) it was 0.23 nM; in assay [2] it was 58.5 nM. The “IC50 ratio (A2bR/A2aR)” value in assay [2] turned out to be 254. For `Cc1cc(-c2c(-c3ccccc3)nc(N)n3cnnc23)cc(C2CC2)n1` [Example 30, 8-(2-Cyclopropyl-6-methylpyridin-4-yl)-7-phenyl-[1,2,4]triazolo[4,3-c]pyrimidin-5-amine], the IC50 in assay [1] (Table 1, ethyl carbazole 20 nM) was 0.77 nM; in assay [1] (Table 3, ethyl carbazole 20 nM), 0.77 nM; in assay [2], 70.9 nM. Moreover, the “IC50 ratio (A2bR/A2aR)” value in assay [2] is on record as 92. As to `Cc1cc(-c2c(-c3ccc(Cl)cc3)nc(N)n3cnnc23)cc(CF)n1` [Example 53, 7-(4-Chlorophenyl)-8-(2-(fluoromethyl)-6-methylpyridin-4-yl)-[1,2,4]triazolo[4,3-c]pyrimidin-5-amine], the IC50 in assay [1] (Table 1, ethyl carbazole 20 nM) stood at 0.35 nM. Regarding `Cc1cc(-c2c(-c3cccc(F)c3)nc(N)n3cnnc23)cc(C(F)(F)F)n1` [Example 29, 7-(3-Fluorophenyl)-8-(2-methyl-6-(trifluoromethyl)pyridin-4-yl)-[1,2,4]triazolo[4,3-c]pyrimidin-5-amine], the IC50 in assay [1] (Table 1, ethyl carbazole 20 nM) stood at 0.55 nM; in assay [1] (Table 3, ethyl carbazole 20 nM), 0.55 nM; in assay [2] it was 86.3 nM. Besides, in assay [2], the “IC50 ratio (A2bR/A2aR)” value came to 157. In assay [1] (Table 1, ethyl carbazole 20 nM), `CC(C)n1cc(-c2c(-c3ccccc3)nc(N)n3cnnc23)ccc1=O` [Example 43, 5-(5-Amino-7-phenyl-[1,2,4]triazolo[4,3-c]pyrimidin-8-yl)-1-isopropylpyridin-2(1H)-one] came in with an IC50 of 0.2 nM. Compound `Nc1nc(-c2ccccc2)c(-c2ccnc(Cl)c2)c2nncn12` [Example 38, 8-(2-Chloropyridin-4-yl)-7-phenyl-[1,2,4]triazolo[4,3-c]pyrimidin-5-amine] came in with an IC50 in assay [1] (Table 1, ethyl carbazole 20 nM) of 2.18 nM. Still for that read-out and setting: then `Cc1cc(-c2c(-c3ccccc3)nc(N)n3ccnc23)cc(C(F)(F)F)n1` [Example 17, 8-(2-Methyl-6-(trifluoromethyl)pyridin-4-yl)-7-phenylimidazo[1,2-c]pyrimidin-5-amine], with 0.75 nM. With `Cc1cc(-c2c(-c3ccc(Cl)cc3F)nc(N)n3cnnc23)cc(Cl)n1` [Example 50, 7-(4-Chloro-2-fluorophenyl)-8-(2-chloro-6-methylpyridin-4-yl)-[1,2,4]triazolo[4,3-c]pyrimidin-5-amine], the IC50 in assay [1] (Table 1, ethyl carbazole 20 nM) was determined as 3.55 nM; in assay [1] (Table 3, ethyl carbazole 20 nM), 3.55 nM; in assay [2], 255 nM. Moreover, the “IC50 ratio (A2bR/A2aR)” value in assay [2] was found to be 72.

In the case of `Nc1nc(-c2ccccc2)c(-c2cc(F)c3[nH]ncc3c2)c2nncn12` [Example 6, 8-(7-Fluoro-1H-indazol-5-yl)-7-phenyl-[1,2,4]triazolo[4,3-c]pyrimidin-5-amine], the IC50 in assay [1] (Table 1, ethyl carbazole 20 nM) is 0.14 nM. On the same count and under the same terms, then `Nc1nc(-c2ccccc2)c(-c2ccncc2)c2nncn12` [Example 37, 7-Phenyl-8-(pyridin-4-yl)-[1,2,4]triazolo[4,3-c]pyrimidin-5-amine], with 2.11 nM. For `Cc1cc(-c2c(-c3ccccc3F)nc(N)n3cnnc23)cc(C(F)(F)F)n1` [Example 33, 7-(2-Fluorophenyl)-8-(2-methyl-6-(trifluoromethyl)pyridin-4-yl)-[1,2,4]triazolo[4,3-c]pyrimidin-5-amine], the IC50 in assay [1] (Table 1, ethyl carbazole 20 nM) was 1.77 nM; in assay [1] (Table 3, ethyl carbazole 20 nM), 1.77 nM; in assay [2] it was 134 nM. For the same compound, in assay [2], the “IC50 ratio (A2bR/A2aR)” value is 76. Take `Nc1nc(-c2ccccc2)c(-c2ccc3[nH]ncc3c2)c2nncn12` [Example 10, 8-(1H-indazol-5-yl)-7-phenyl-[1,2,4]triazolo[4,3-c]pyrimidin-5-amine]: the IC50 is 0.26 nM in assay [1] (Table 1, ethyl carbazole 20 nM); 0.26 nM in assay [1] (Table 3, ethyl carbazole 20 nM); 91 nM in assay [2]. Also, the “IC50 ratio (A2bR/A2aR)” value in assay [2] is given as 350.

Consider `Cc1cc(-c2c(-c3ccc(Cl)cc3)nc(N)n3cnnc23)cc(C(F)(F)F)n1` [Example 14, 7-(4-Chlorophenyl)-8-(2-methyl-6-(trifluoromethyl)pyridin-4-yl)-[1,2,4]triazolo[4,3-c]pyrimidin-5-amine], for which 1.56 nM corresponded to half-maximal inhibition in assay [1] (Table 1, ethyl carbazole 20 nM) (IC50). On the same count and under the same terms, then `Nc1nc(-c2ccccc2)c(-c2cc(Cl)nc(C(F)(F)F)c2)c2nncn12` [Example 23, 8-(2-Chloro-6-(trifluoromethyl)pyridin-4-yl)-7-phenyl-[1,2,4]triazolo[4,3-c]pyrimidin-5-amine], with 0.23 nM; and `Cc1cc(-c2c(-c3ccccc3)nc(N)n3cnnc23)ccn1` [Example 12, 8-(2-Methylpyridin-4-yl)-7-phenyl-[1,2,4]triazolo[4,3-c]pyrimidin-5-amine], with 0.63 nM; and `CCc1cc(-c2c(-c3ccccc3)nc(N)n3cnnc23)cc(C)n1` [Example 26, 8-(2-Ethyl-6-methylpyridin-4-yl)-7-phenyl-[1,2,4]triazolo[4,3-c]pyrimidin-5-amine], with 0.42 nM. On the same count and under the same terms, then `Cc1cc(-c2c(-c3ccccc3)nc(N)n3cc(C)nc23)cc(C)n1` [Example 21, 8-(2,6-Dimethylpyridin-4-yl)-2-methyl-7-phenylimidazo[1,2-c]pyrimidin-5-amine], with 2.46 nM. For the compound `Cc1ccc(-c2nc(N)n3cnnc3c2-c2cc(C)nc(Cl)c2)cc1` [Example 35, 8-(2-Chloro-6-methylpyridin-4-yl)-7-(p-tolyl)-[1,2,4]triazolo[4,3-c]pyrimidin-5-amine], in assay [1] (Table 1, ethyl carbazole 20 nM), it took 0.18 nM to reach half-maximal inhibition (IC50). This IC50 is about 14-fold lower than that of the compound before.

Consider `Nc1nc(-c2ccccc2)c(-c2cc(C(F)(F)F)c3[nH]ncc3c2)c2nncn12` [Example 9, 7-Phenyl-8-(7-(trifluoromethyl)-1H-indazol-5-yl)-[1,2,4]triazolo[4,3-c]pyrimidin-5-amine], for which half-maximal inhibition in assay [1] (Table 1, ethyl carbazole 20 nM) (IC50) required 0.25 nM.

Compound `Cc1cc(-c2c(-c3ccc(F)cc3F)nc(N)n3cnnc23)cc(C)n1` [Example 40, 7-(2,4-Difluorophenyl)-8-(2,6-dimethylpyridin-4-yl)-[1,2,4]triazolo[4,3-c]pyrimidin-5-amine] had a 50% inhibitory concentration (IC50) in assay [1] (Table 1, ethyl carbazole 20 nM) of 1.75 nM. Still for that read-out and setting: to `Cc1cc(-c2c(-c3ccc(F)cc3)nc(N)n3ccnc23)cc(C)n1` [Example 32, 8-(2,6-Dimethylpyridin-4-yl)-7-(4-fluorophenyl)imidazo[1,2-c]pyrimidin-5-amine] belongs 1 nM.
